Experiments:
[1] = tested on: Phakopsora pachyrhizi; test: Curative control of soy bean rust on soy beans, green house test; type: in vivo, Phakopsora pachyrhizi on soy bean seedlings; settings: 300 ppm, curative spray after inoculation; assessed after 14 days; untreated plants 90% infected
Protocol: (§1) The spray solutions were prepared in several steps: A mixture of acetone and/or dimethylsulfoxide and the wetting agent/emulsifier Wettol, which is based on ethoxylated alkylphenoles, in a relation (volume) solvent-emulsifier of 99 to 1 was added to 25 mg of the compound to give a total of 10 ml. Water was then added to total volume of 100 ml. This stock solution was diluted with the described solvent-emulsifier-water mixture to the given concentration.
Leaves of pot-grown soy bean seedlings were inoculated with spores of Phakopsora pachyrhizi. To ensure the success of the artificial inoculation, the plants were transferred to a humid chamber with a relative humidity of about 95% and 20 to 24° C. for 24 h. The next day the plants were cultivated for 2 days in a greenhouse chamber at 23-27° C. and a relative humidity between 60 and 80%. Then the plants were sprayed to run-off with an aqueous suspension, containing the concentration of active ingredient as described below. The plants were allowed to air-dry. Then the trial plants were cultivated for 14 days in a greenhouse chamber at 23-27° C. and a relative humidity between 60 and 80%. The extent of fungal attack on the leaves was visually assessed as % diseased leaf area.

[2] = tested on: Puccinia recondite; test: Preventative control of brown rust on wheat, green house test; type: in vivo, Puccinia recondite on wheat seedlings; settings: 300 ppm, preventative spray one day before inoculation; assessed after 6 days in greenhouse; untreated plants 80% infected
Protocol: as §1
The first two developed leaves of pot-grown wheat seedling were sprayed to run-off with an aqueous suspension, containing the concentration of active ingredient or their mixture as described below. The next day the plants were inoculated with spores of Puccinia recondite. To ensure the success the artificial inoculation, the plants were transferred to a humid chamber without light and a relative humidity of 95 to 99% and 20 to 24° C. for 24 h. Then the trial plants were cultivated for 6 days in a greenhouse chamber at 20-24° C. and a relative humidity between 65 and 70%. The extent of fungal attack on the leaves was visually assessed as % diseased leaf area.

[3] = tested on: Botrytis cinerea; test: Activity against the grey mold Botrytis cinerea in the microtiterplate test (Botrci); type: cell-based; settings: 31 ppm active compound; absorption at 405 nm 7 days after inoculation; active compound-free control = 100%
Protocol: The active substances were formulated separately as a stock solution in dimethyl sulfoxide (DMSO) at a concentration of 10 000 ppm. The stock solutions were mixed according to the ratio, pipetted onto a micro titer plate (MTP) and diluted with water to the concentration given below. A spore suspension of Botrytis cinerea in an aqueous biomalt solution was then added. The plates were placed in a water vapor-saturated chamber at a temperature of 18° C. Using an absorption photometer, the MTPs were measured at 405 nm 7 days after the inoculation. The measured parameters were compared to the growth of the active compound-free control variant (100%) and the fungus-free and active compound-free blank value to determine the relative growth in % of the pathogens in the respective active compounds.

Compound	infection (% diseased leaf area) [1]	infection (% diseased leaf area) [2]	relative growth in % of the pathogen [3]
OC(CC1CC1)(Cn1ncnc1S)c1ccc(Cl)cc1 (stereo not shown) [I.A.1, 2-(4-Chloro-phenyl)-3-cyclopropyl-1-(5-mercapto-[1,2,4]triazol-1-yl)-propan-2-ol]	0%	20%	
OC(CC1CC1)(Cn1ncnc1S)c1ccc(Cl)cc1Cl (stereo not shown) [I.A.2, 2-(2,4-Dichloro-phenyl)-3-cyclopropyl-1-(5-mercapto-[1,2,4]triazol-1-yl)-propan-2-ol]	0%	20%	
CC(C1CCCCC1)C(O)(Cn1ncnc1S)c1ccc(Cl)cc1 (stereo not shown) [I.A.3, 2-(4-Chloro-phenyl)-3-cyclohexyl-1-(5-mercapto-[1,2,4]triazol-1-yl)-butan-2-ol]	0%	20%	0%
CC(C1CC1)C(O)(Cn1ncnc1S)c1ccccc1 (stereo not shown) [I.A.4, 2-Phenyl-3-cyclopropyl-1-(5-mercapto-[1,2,4]triazol-1-yl)-butan-2-ol]	0%	20%	
CC(C1CC1)C(O)(Cn1ncnc1S)c1ccc(Cl)c(Cl)c1 (stereo not shown) [I.A.5, 2-(3,4-Dichloro-phenyl)-3-cyclopropyl-1-(5-mercapto-[1,2,4]triazol-1-yl)-butan-2-ol]	0%	20%	
CC(C1(C)CC1)C(O)(Cn1ncnc1S)c1ccc(Cl)cc1 (stereo not shown) [I.A.6, 2-(4-Chloro-phenyl)-3-(1-methylcyclopropyl)-1-(5-mercapto-[1,2,4]triazol-1-yl)-butan-2-ol]	0%	20%	0%
CC(C1CCCC1)C(O)(Cn1ncnc1S)c1ccc(Cl)cc1 (stereo not shown) [I.A.7, 2-(4-Chloro-phenyl)-3-cyclopentyl-1-(5-mercapto-[1,2,4]triazol-1-yl)-butan-2-ol]	0%	20%	
CC(C1CC1)C(O)(Cn1ncnc1S)c1ccc(F)c(F)c1 (stereo not shown) [I.A.8, 2-(3,4-Difluoro-phenyl)-3-cyclopropyl-1-(5-mercapto-[1,2,4]triazol-1-yl)-butan-2-ol]	0%	20%	
CC(C1(C)CC1)C(O)(Cn1ncnc1S)c1ccccc1 (stereo not shown) [I.A.9, 2-Phenyl-3-(1-methylcyclopropyl)-1-(5-mercapto-[1,2,4]triazol-1-yl)-butan-2-ol]	0%		

Source: US20120077676A1, “Antifungal 1,2,4-Triazolyl Derivatives Having a 5-Sulfur Substituent” (BASF SE, priority 2009, published 2012)
